Data reported in patent US20260108641A1, “PHYTIC ACID-BASED TERNARY COMPLEX BIOMIMETIC NANOMATERIAL, AND PREPARATION METHOD AND USE THEREOF” (THE SECOND HOSPITAL OF TIAN JIN MEDICAL UNIVERSITY, priority 2023, published 2026).

Legend:
[1] = system: PC-3 tumor-bearing mouse model; assay: In vivo tumor inhibitory effect; parameters: species or system mice; conditions: day 14 after tail vein injection, controls PBS, CDDP, PA-Mn-BSA
Experimental: A PC-3 tumor-bearing mouse model was constructed. […] Tumor size was measured every other day for 14 consecutive days after injection to observe the tumor growth inhibitory effect in different groups. Tumors were dissected and collected from the mice on day 14 for size observation.

[2] = Safety evaluation, blood biochemical analysis; assay type: in vivo, Kunming mice; conditions: 24 hours after tail vein injection, versus PBS group
Experimental: Normal Kunming mice were selected, and PBS, CDDP, PA-Mn-BSA and PA-Mn/Pt-BSA were separately injected via the tail vein of the mice. Blood biochemical analysis was performed 24 hours later.

## [NH2][Pt]([NH2])([Cl])[Cl] [CDDP, cisplatin]
[1]
  tumor volume of dissected tumors: smaller tumor volume than the PBS group
[2]
  level of alanine transaminase (ALT): significantly higher
  level of aspartate transaminase (AST): significantly higher
  level of blood urea nitrogen (BUN): significantly higher
  level of creatinine (CRE): significantly higher
